Reference: ChEMBL document CHEMBL4715830, “Design, synthesis and biological evaluation of suramin-derived dual antagonists of the proinflammatory G protein-coupled receptors P2Y and GPR17” (Eur J Med Chem, 2020)
The source made the active and inactive calls.

Experiments:
[1] = molecular target: T1, P2Y purinoceptor 14 (Homo sapiens) (UniProt Q15391); assay: Antagonist activity at recombinant human Gi/Go-coupled GP2Y14 receptor expressed in CHOK1 cells assessed as inhibition of […]-induced inhibition of beta-arrestin recruitment at 10 uM by pathhunter assay; assay type: cell-based
T1 sequence (whole entry): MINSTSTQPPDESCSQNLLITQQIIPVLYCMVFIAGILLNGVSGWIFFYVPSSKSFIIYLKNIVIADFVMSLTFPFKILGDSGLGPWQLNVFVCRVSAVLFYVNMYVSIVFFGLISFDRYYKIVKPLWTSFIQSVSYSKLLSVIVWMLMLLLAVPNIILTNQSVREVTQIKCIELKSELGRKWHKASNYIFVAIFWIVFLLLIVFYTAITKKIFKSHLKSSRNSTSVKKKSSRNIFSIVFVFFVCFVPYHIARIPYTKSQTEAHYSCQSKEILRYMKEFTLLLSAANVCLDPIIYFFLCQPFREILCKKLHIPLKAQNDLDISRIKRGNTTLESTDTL

[2] = molecular target: P2Y purinoceptor 12 (Homo sapiens) (UniProt Q9H244); assay: Antagonist activity at recombinant human Gi/Go-coupled GP2Y12 receptor expressed in CHOK1 cells assessed as inhibition of 2-(Methylthio)ADP-induced inhibition of beta-arrestin recruitment at 10 uM by pathhunter assay; assay type: cell-based; conditions: CHO-K1
[3] = molecular target: P2Y purinoceptor 1 (Homo sapiens) (UniProt P47900); assay: Antagonist activity at human P2Y1 receptor expressed in human 1321N1 cells assessed as inhibition of ADP-induced intracellular calcium influx at 10 uM preincubated for 20 mins followed by ADP addition measured at 0.4 secs interval for 60 times by Oregon Green BAPTA-1/AM dye-based fluorescence assay; assay type: functional, cell-based
[4] = molecular target: P2Y purinoceptor 6 (Rattus norvegicus) (UniProt Q63371); assay: Antagonist activity at rat P2Y6 receptor expressed in human 1321N1 cells assessed as inhibition of UDP-induced intracellular calcium influx at 10 to 100 uM preincubated for 20 mins followed by UDP addition measured at 0.4 secs interval for 60 times by Oregon Green BAPTA-1/AM dye-based fluorescence assay; assay type: functional, cell-based; conditions: dose 10-100 µM
[5] = molecular target: P2Y purinoceptor 4 (Homo sapiens) (UniProt P51582); assay: Antagonist activity at human P2Y4 receptor expressed in human 1321N1 cells assessed as inhibition of UTP-induced intracellular calcium influx at 10 to 100 uM preincubated for 20 mins followed by UTP addition measured at 0.4 secs interval for 60 times by Oregon Green BAPTA-1/AM dye-based fluorescence assay; assay type: functional, cell-based; conditions: dose 10-100 µM

Measured: inhibition

Sequence of P2Y purinoceptor 12 (Homo sapiens) (Q9H244 whole entry): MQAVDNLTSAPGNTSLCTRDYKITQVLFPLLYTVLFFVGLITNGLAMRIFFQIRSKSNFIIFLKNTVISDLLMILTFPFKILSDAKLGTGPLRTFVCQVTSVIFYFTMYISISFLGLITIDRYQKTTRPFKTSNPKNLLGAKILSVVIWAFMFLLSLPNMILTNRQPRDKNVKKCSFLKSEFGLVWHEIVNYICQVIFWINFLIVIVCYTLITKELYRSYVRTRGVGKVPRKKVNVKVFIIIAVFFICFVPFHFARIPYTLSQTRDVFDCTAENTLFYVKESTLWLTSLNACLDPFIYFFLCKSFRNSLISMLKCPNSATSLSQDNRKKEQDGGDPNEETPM
Sequence of P2Y purinoceptor 1 (Homo sapiens) (P47900 whole entry): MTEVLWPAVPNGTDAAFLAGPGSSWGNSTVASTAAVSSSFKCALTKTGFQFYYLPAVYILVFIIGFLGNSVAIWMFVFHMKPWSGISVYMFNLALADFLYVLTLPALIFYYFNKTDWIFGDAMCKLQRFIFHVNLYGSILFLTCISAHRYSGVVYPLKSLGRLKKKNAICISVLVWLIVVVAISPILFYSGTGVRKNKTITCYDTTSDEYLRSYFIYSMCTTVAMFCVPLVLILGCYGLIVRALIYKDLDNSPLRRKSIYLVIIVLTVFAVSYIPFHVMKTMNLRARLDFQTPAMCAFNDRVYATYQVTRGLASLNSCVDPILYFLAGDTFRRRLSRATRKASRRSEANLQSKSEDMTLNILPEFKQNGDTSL
Sequence of P2Y purinoceptor 6 (Rattus norvegicus) (Q63371 whole entry): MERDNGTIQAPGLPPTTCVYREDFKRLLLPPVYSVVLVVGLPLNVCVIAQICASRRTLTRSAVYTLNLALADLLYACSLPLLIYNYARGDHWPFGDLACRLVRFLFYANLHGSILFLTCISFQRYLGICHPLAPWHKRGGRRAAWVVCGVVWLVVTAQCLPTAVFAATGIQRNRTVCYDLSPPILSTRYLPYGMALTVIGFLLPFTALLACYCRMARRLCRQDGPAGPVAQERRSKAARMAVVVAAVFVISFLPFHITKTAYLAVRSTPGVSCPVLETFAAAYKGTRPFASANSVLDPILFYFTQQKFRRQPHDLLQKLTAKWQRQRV
Sequence of P2Y purinoceptor 4 (Homo sapiens) (P51582 whole entry): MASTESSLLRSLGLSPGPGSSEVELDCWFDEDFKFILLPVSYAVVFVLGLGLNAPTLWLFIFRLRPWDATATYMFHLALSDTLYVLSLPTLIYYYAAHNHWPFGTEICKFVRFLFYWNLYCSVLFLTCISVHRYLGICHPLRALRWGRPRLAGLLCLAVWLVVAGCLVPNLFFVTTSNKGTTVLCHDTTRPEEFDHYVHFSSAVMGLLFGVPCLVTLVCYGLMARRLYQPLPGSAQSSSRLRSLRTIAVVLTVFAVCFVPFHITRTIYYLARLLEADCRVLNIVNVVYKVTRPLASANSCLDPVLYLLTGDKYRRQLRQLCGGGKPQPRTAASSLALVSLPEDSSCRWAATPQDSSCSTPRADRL

CC(=O)c1cccc(C(=O)Nc2ccc(S(=O)(=O)Oc3cccc([N+](=O)[O-])c3)cc2)c1
inactive: all assays above

O=C(Nc1ccc(S(=O)(=O)Oc2cccc([N+](=O)[O-])c2)cc1)c1ccccc1
inactive: all assays above

Cc1cccc(C(=O)Nc2ccc(S(=O)(=O)Oc3cccc(C#N)c3)cc2)c1
inactive: all assays above

O=C(Nc1cccc(S(=O)(=O)Oc2cccc([N+](=O)[O-])c2)c1)c1ccc(Cl)cc1
inactive: all assays above

Cc1cccc(NC(=O)c2cccc(NC(=O)c3ccc([N+](=O)[O-])cc3)c2)c1
inactive: all assays above

O=C(Nc1ccc(S(=O)(=O)Oc2cccc([N+](=O)[O-])c2)cc1)c1cccc(Cl)c1
inactive: all assays above

Cc1cccc(C(=O)Nc2cccc(S(=O)(=O)Oc3cccc([N+](=O)[O-])c3)c2)c1
inactive: all assays above

COC(=O)c1cccc(NC(=O)Nc2cccc(C(=O)Nc3cccc(C)c3)c2)c1
inactive: all assays above

Cc1cccc(C(=O)Nc2ccc(S(=O)(=O)Nc3cccc([N+](=O)[O-])c3)cc2)c1
inactive: all assays above

O=C(Nc1ccc(S(=O)(=O)Oc2cccc([N+](=O)[O-])c2)cc1)c1cccc(Br)c1
inactive: all assays above

Cc1cccc(NC(=O)c2ccc(NC(=O)c3ccc([N+](=O)[O-])cc3)cc2)c1
inactive: all assays above

Cc1ccc(C(=O)Nc2ccc(S(=O)(=O)Nc3cccc([N+](=O)[O-])c3)cc2)cc1
inactive: all assays above

Cc1cccc(NC(=O)c2cccc(NC(=O)Nc3cccc(C(=O)O)c3)c2)c1
inactive: all assays above

O=C(Nc1cccc(S(=O)(=O)Oc2cccc([N+](=O)[O-])c2)c1)c1cccc(F)c1
inactive: all assays above

Cc1cccc(C(=O)Nc2cccc(NC(=O)c3ccc([N+](=O)[O-])cc3)c2)c1
inactive: all assays above

O=C(Nc1ccc(S(=O)(=O)Oc2cccc([N+](=O)[O-])c2)cc1)c1cccc(C(F)(F)F)c1
inactive: all assays above

COc1cccc(C(=O)Nc2ccc(S(=O)(=O)Oc3cccc([N+](=O)[O-])c3)cc2)c1
inactive: all assays above

Cc1ccc(C(=O)Nc2ccc(S(=O)(=O)Oc3cccc([N+](=O)[O-])c3)cc2)cc1
inactive: all assays above

Cc1cccc(C(=O)Nc2ccc(S(=O)(=O)NCc3cccc(Cl)c3)cc2)c1
inactive: all assays above

COC(=O)c1cccc(NC(=O)Nc2ccc(NC(=O)c3cccc(C)c3)cc2)c1
inactive: all assays above

CCC(=O)c1cccc(C(=O)Nc2ccc(S(=O)(=O)Oc3cccc([N+](=O)[O-])c3)cc2)c1
inactive: all assays above

O=C(Nc1cccc(S(=O)(=O)Oc2cccc([N+](=O)[O-])c2)c1)c1cccc(Cl)c1
inactive: all assays above

Cc1cccc(C(=O)Nc2ccc(NC(=O)c3cccc([N+](=O)[O-])c3)cc2)c1
inactive: all assays above

Cc1cccc(NC(=O)c2ccc(NC(=O)c3cccc([N+](=O)[O-])c3)cc2)c1
inactive: all assays above

Cc1cccc(C(=O)Nc2ccc(S(=O)(=O)Oc3ccc([N+](=O)[O-])cc3)cc2)c1
inactive: all assays above

Cc1cccc(C(=O)Nc2cccc(NC(=O)Nc3cccc(C(=O)O)c3)c2)c1
inactive: all assays above

Cc1cccc(C(=O)Nc2cccc(NC(=O)c3cccc([N+](=O)[O-])c3)c2)c1
inactive: all assays above
